According to patent US20080311657A1, “Killing Human Lymphoma and Leukemia Cancer Cells and Tcr-Activated Normal Human Cells By Dopamine D1r Agonists” (priority 2005, published 2008):

Assays:
Type in all cases: cell-based
[1] = test system: Human T-cell leukemia (Jurkat) cells; experiment: Number of living cells counted by flow cytometry (FACSort) after D1R agonist
Description: Afterwards, the microtiter plates were placed in an incubator (37° C., humidified incubator, 5% CO2) for 3 days. Then, the number of living cells was evaluated by flow cytometry (the cells were counted by FACsort for a fixed time length of 1 min, in which 100 microliter of each sample was tested). Of note, A 77636 hydrochloride is an orally-active D1R agonist, according to the manufacturer (Tocris).
(§1) Afterwards, the microtiter plates were placed in an incubator (37° C., humidified incubator, 5% CO2) for 3 days. Then, the number of living cells was evaluated by flow cytometry (the cells were counted by FACsort for a fixed time length of 1 min, in which 100 microliter of each sample was tested).
The experiment was designed to test the effect of exposing the cells to the D1R agonist for 1 min, 15 min, 1 hr or 72 hr. Thus, 1 min, or 15 min or 1 hr after the addition of the D1R agonist, the corresponding cells were transferred into tubes, centrifuged (1000 rpm for 10 min); and the supernatant was removed. […] Thus, its medium was not replaced, and these cells and remained as such in the incubator for 72 hr. At the end of the 72 hr incubation, the number of living cells was evaluated by flow cytometry (the cells were counted by FACsort for a fixed time length of 1 min, in which 100 microliter of each sample was tested).
(§2) Cell viability was tested afterwards.
For this purpose, the Jurkat T-cell leukemia line, the HuT-78 human T-lymphoma (cutaneous “Sezary” T-lymphoma) line, and the K-562 human Chronic-Myeloid Leukemia (CML) and Daudi Human B-lymphoma (Burkitt's lymphoma) lines were seeded in tissue culture wells (0.5 million cells/0.5 ml/well).
(§3) Cell survival/death was evaluated 3 days later by counting the number of living cells, using flow cytometry.

[2] = test system: Human cutaneous Sezary T-lymphoma cells (HuT-78); experiment: as above; conditions: 10^−3M-10^−6M, 3 days
Description: (§4) Human cutaneous Sezary T-lymphoma cells (HUT-78) were seeded in 96 well plates (0.5 ml per well of 0.5 million cells/ml) and A 77636 hydrochloride was added and diluted 1:00 into the wells at starting concentrations of 10^−1M-10^−4M, so that the final concentration range tested was 10^−3M-10^−6M. Afterwards, the microtiter plates were placed in an incubator (37° C., humidified incubator, 5% CO2) for 3 days. Then, the number of living cells was evaluated by flow cytometry (the cells were counted by FACsort for a fixed time length of 1 min, in which 100 microliter of each sample was tested).
as §4, with “68930” for “77636”
as §4, with “SKF 38393 hydrobromide” for “A 77636 hydrochloride”
Cell viability was tested afterwards. […]
as §3

[3] = test system: Human Burkitt's B-lymphoma cells (Daudi); experiment: as above; conditions: 10^−3M-10^−6M, 3 days
Description: as §4, with “Burkitt's B-lymphoma” for “cutaneous Sezary T-lymphoma”, “(Daudi)” for “(HUT-78)”, “Afterwards, the microtiter plates were placed in an incubator (37° C., humidified incubator, 5% CO2) for 3 days.” left out
as §4, with “Burkitt's B-lymphoma” for “cutaneous Sezary T-lymphoma”, “(Daudi)” for “(HUT-78)”, “68930” for “77636”, “Afterwards, the microtiter plates were placed in an incubator (37° C., humidified incubator, 5% CO2) for 3 days.” left out
[…] Then, the number of living cells was evaluated by flow cytometry (the cells were counted by FACsort for a fixed time length of 1 min, in which 100 microliter of each sample was tested).
as §2
The effect of dopamine itself (that can of course activate all its D1R-5 receptors) was also tested. All of these molecules were tested at a similar concentration (10^−4 M). […] The specificity and restriction of the effect to the D1R is also seen in Tables 7 and 8.

[4] = test system: Human Burkitt's B-cell lymphoma (Raji) cells; experiment: as above; conditions: 10^−3M-10^−6M, 3 days
Description: as §1, §2

[5] = test system: Human Burkitt's B-lymphoma cells (Raji); experiment: Cell death by LDH release (CytoTox 96); conditions: 10^−4M
Description: Human Burkitt's B-lymphoma cells (Raji) were seeded in 96 well plates (0.5 ml per well of 0.5 million cells/ml) and A 77636 hydrochloride was added and diluted 1:00 into the wells, at a fixed starting concentration of 10^−2M, so that the final concentration tested was 10^−4M. The cells were then transferred to an incubator (37° C., humidified incubator, 5% CO2) for 1 min, 10 min, 30 min, 60 min or 120 min incubation.

Cl.NC[C@@H]1O[C@H](C23CC4CC(CC(C4)C2)C3)Cc2c1ccc(O)c2O [A 77636 hydrochloride, (1R-cis)-1-(aminomethyl)-3,4-dihydro-3-tricyclo[3.3.1.13,7]dec-1-yl-[1H]-2-benzopyran-5,6-diol hydrochloride]
Cell death by number of living cells (FIGS. 10-12), in words ([1]; 10^−3M-10^−6M, 3 days): induces marked cell death
Killing, in words ([1]; 10^−4M, 1 min incubation then washed, living cells counted 3 days later): not sufficient to cause marked cell death
Killing, in words ([1]; 10^−4M, 15 minutes then washed, living cells counted 3 days later): significant
% of the cells killed (maximum) ([1]; 10^−4M, 1 hour of incubation then washed, living cells counted 3 days later): 94%
Killing, in words ([1]; 10^−4M, 72 hour incubation): no further effect
Speed of cell death by number of living cells (FIG. 30), in words ([1]; 10^−4M, exposure 1 min, 15 min, 1 hr or 72 hr): very rapid death
Cell death by number of living cells (FIGS. 13-15), in words [2]: induces marked cell death
Cell death by number of living cells (FIGS. 16-18), in words [3]: induces marked cell death
Cell death by number of living cells (FIGS. 19-21), in words [4]: induces marked cell death
Exposure time at which extent of cell death reaches a plateau ([5]; LDH release): 1 h
Elevation in the release of LDH ([5]; exposure for 1 minute): ≈ 3 fold
Speed of cell death by LDH release (FIG. 28), in words ([5]; 1, 10, 30, 60 or 120 min): very rapid death
